Experimental data reported in ChEMBL document CHEMBL4033748, “SAR and characterization of non-substrate isoindoline urea inhibitors of nicotinamide phosphoribosyltransferase (NAMPT)” (Bioorg Med Chem Lett, 2017).
≈ marks a conversion by molar mass, not a printed value.

What was measured:
Liver [1] = assay: Unbound intrinsic clearance in mouse liver microsomes at 0.5 uM in presence of NADPH incubated for 5 to 30 mins by HPLC-MS/MS method; type: ADME, microsome
PC-3 = assay: Antiproliferative activity against human PC3 cells assessed as reduction in cell viability incubated for 5 days by Cell-titer Glo reagent based assay; type: functional
Liver [2] = assay: Unbound intrinsic clearance in human liver microsomes at 0.5 uM in presence of NADPH incubated for 5 to 30 mins by HPLC-MS/MS method; type: ADME, microsome
[3] = Aqueous solubility of the compound; type: physicochemical; details: buffer
[4] = target: Nicotinamide phosphoribosyltransferase (Homo sapiens, UniProt P43490)
Nicotinamide phosphoribosyltransferase, sequence (P43490 whole entry): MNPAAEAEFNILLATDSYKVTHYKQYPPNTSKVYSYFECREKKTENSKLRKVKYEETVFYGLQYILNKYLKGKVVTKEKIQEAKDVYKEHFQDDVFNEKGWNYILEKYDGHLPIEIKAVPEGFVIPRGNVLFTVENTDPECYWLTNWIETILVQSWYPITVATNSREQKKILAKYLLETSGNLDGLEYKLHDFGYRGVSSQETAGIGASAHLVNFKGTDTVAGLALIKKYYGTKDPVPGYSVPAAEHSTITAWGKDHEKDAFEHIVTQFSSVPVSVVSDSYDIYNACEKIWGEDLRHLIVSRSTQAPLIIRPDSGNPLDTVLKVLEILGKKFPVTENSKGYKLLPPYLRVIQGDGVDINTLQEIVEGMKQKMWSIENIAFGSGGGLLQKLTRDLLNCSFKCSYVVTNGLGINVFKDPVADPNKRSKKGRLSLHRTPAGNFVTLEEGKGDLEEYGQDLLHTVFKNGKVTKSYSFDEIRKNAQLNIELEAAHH
Description: Inhibition of C-terminal His-tagged human recombinant NAMPT using FK866 or isoindoline urea-based Oregon green (488) probe incubated for 3 hrs by TR-FRET assay

Cytochrome P450 3A4 = Cytochrome P450 3A4 (Homo sapiens, UniProt P08684); assay: Inhibition of CYP3A4 (unknown origin); type: ADME
Cytochrome P450 3A4, sequence (P08684 whole entry): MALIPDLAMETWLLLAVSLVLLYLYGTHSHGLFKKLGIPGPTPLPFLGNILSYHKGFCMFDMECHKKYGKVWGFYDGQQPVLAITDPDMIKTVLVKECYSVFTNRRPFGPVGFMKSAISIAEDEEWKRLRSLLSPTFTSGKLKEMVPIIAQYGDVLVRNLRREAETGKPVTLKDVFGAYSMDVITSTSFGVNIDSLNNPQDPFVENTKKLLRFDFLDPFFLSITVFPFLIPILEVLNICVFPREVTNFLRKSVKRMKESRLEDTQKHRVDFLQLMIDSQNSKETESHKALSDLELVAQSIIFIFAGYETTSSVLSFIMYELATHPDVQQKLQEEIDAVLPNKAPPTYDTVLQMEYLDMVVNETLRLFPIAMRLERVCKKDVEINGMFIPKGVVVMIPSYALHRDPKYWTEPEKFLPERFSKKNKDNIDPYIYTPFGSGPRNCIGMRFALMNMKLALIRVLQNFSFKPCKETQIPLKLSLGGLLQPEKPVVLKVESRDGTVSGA

Rattus norvegicus = assay: Unbound intrinsic clearance in Sprague-Dawley rat at 1 mg/kg, iv; type: ADME, organism-based; details: in vivo
Cytochrome P450 2C9 = Cytochrome P450 2C9 (Homo sapiens, UniProt P11712); assay: Inhibition of CYP2C9 (unknown origin); type: ADME
Cytochrome P450 2C9, sequence (P11712 whole entry): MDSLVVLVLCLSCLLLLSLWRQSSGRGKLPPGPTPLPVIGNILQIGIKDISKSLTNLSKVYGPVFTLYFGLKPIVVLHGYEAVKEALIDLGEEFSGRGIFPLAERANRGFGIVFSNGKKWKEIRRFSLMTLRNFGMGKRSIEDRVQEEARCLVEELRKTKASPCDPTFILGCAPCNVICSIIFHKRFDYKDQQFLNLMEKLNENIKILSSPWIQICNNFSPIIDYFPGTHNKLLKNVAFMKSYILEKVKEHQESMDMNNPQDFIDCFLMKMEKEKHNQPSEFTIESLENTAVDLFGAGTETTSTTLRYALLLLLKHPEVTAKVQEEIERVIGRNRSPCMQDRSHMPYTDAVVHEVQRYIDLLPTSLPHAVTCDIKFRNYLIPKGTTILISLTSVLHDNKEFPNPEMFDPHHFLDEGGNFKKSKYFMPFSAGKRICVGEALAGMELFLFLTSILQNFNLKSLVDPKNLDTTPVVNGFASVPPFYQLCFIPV

[5] = Half life in Sprague-Dawley rat at 1 mg/kg, iv; type: ADME, organism-based; details: in vivo
Liver [6] = assay: Unbound intrinsic clearance in rat liver microsomes at 0.5 uM in presence of NADPH incubated for 5 to 30 mins by HPLC-MS/MS method; type: ADME, microsome
[7] = Oral bioavailability in Sprague-Dawley rat at 1 mg/kg; type: ADME, organism-based; details: in vivo
HCT-116 = assay: Antitumor activity against human HCT116 cells xenografted in CB17 SCID mouse assessed as tumor growth inhibition at 15 mg/kg/day, po dosed daily (3 days on/4 days off per cycle for 3 cycles); type: functional; details: HCT-116, po, 72 h, read-out: TGI
[8] = Plasma clearance in Sprague-Dawley rat at 1 mg/kg, iv; type: ADME, organism-based

## O=C(NCc1ccccc1)c1ccc(NC(=O)N2Cc3ccccc3C2)cc1
Liver [1]
  CL free: 21 L/h/kg
PC-3; Homo sapiens, PC-3, 120 h
  IC50: 0.068 µM
Liver [2]
  CL free: 3.5 L/h/kg
[3]
  solubility: < 5 µM

## O=C(NCCCc1ccccc1)c1ccc(NC(=O)N2Cc3ccccc3C2)cc1
PC-3; Homo sapiens, PC-3, 120 h
  IC50: 0.021 µM
Liver [2]
  CL free: 1060 L/h/kg
[3]
  solubility: < 5 µM

## CC(C)CCNS(=O)(=O)c1ccc(NC(=O)N2Cc3ccccc3C2)cc1
Liver [1]
  CL free: 265 L/h/kg
PC-3; Homo sapiens, PC-3, 120 h
  IC50: > 10 µM
Liver [2]
  CL free: 26 L/h/kg
[3]
  solubility: < 5 µM

## COC(=O)c1ccc(NC(=O)N2Cc3ccccc3C2)cc1
[4]
  Ki: 0.112 µM
PC-3; pc-3
  IC50: 2.3 µM
[3]
  solubility: < 5 µM

## CC(C)(C)CCNC(=O)c1ccc(NC(=O)N2Cc3ccccc3C2)cc1
Liver [1]
  CL free: 8.7 L/h/kg
PC-3; pc-3
  IC50: 0.021 µM
Liver [2]
  CL free: 13 L/h/kg
[3]
  solubility: < 5 µM

## CC(C)(O)CC(=O)N1CCC(c2ccc(NC(=O)N3Cc4ccccc4C3)cc2)CC1
Cytochrome P450 3A4
  IC50: 16 µM
Rattus norvegicus
  CL free: 1.7 L/h/kg
[4]
  Ki: 0.0056 µM
Liver [1]
  CL free: 18 L/h/kg
Cytochrome P450 2C9
  IC50: 8.4 µM
[5]
  half-life: 4.8 h
Liver [6]
  CL free: < 3.4 L/h/kg
[7]
  bioavailability: 100%
HCT-116
  inhibition in vivo at 15 mg/kg/day: 90%
PC-3; Homo sapiens, PC-3, 120 h
  IC50: 0.024 µM
[8]
  clearance: 0.11 L/h/kg
Liver [2]
  CL free: 3.5 L/h/kg
[3]
  solubility: 3.3 µM (≈ 1.39 µg/mL)

## CC(C)CCNC(=O)c1ccc(NC(=O)N2Cc3ccc(C(F)(F)F)cc3C2)cc1
PC-3; pc-3
  IC50: > 10 µM

## COc1cc2c(cc1OC)CN(C(=O)Nc1ccc(C(=O)NCCC(C)C)cc1)C2
[4]
  Ki: > 9 µM
PC-3; Homo sapiens, PC-3, 120 h
  IC50: > 10 µM

## N#CN=C(NCCCCCCOc1ccc(Cl)cc1)Nc1ccncc1 [CHS-828]
Liver [1]
  CL free: 81.8 L/h/kg
PC-3; Homo sapiens, PC-3, 120 h
  IC50: 0.0044 µM
Liver [2]
  CL free: 34 L/h/kg
[3]
  solubility: < 5 µM

## CC(C)CCNC(=O)c1cccc(NC(=O)N2Cc3ccccc3C2)c1
[4]
  Ki: > 8.9 µM
PC-3; Homo sapiens, PC-3, 120 h
  IC50: > 12.5 µM

## CC(C)CCNC(=O)c1ccc(NC(=O)N2Cc3ccc(CO)cc3C2)cc1
PC-3; Homo sapiens, PC-3, 120 h
  IC50: 0.0014 µM

## CC(C)CCn1cc(-c2ccc(NC(=O)N3Cc4ccccc4C3)cc2)cn1
PC-3; Homo sapiens, PC-3, 120 h
  IC50: 0.032 µM
[3]
  solubility: < 5 µM

## CCCNC(=O)c1ccc(NC(=O)N2Cc3ccccc3C2)cc1
Liver [1]
  CL free: 4.3 L/h/kg
PC-3; pc-3
  IC50: 0.88 µM
Liver [2]
  CL free: 3.4 L/h/kg
[3]
  solubility: < 5 µM

## CCC(C)C(=O)N1CCC(Oc2ccc(NC(=O)N3Cc4ccccc4C3)cc2)CC1 (centres undefined)
Liver [1]
  CL free: 167 L/h/kg
PC-3; Homo sapiens, PC-3, 120 h
  IC50: 0.048 µM
Liver [2]
  CL free: 38 L/h/kg

## CN1CCN(C(C)(C)C(=O)N2CCC(c3ccc(NC(=O)N4Cc5ccccc5C4)cc3)CC2)CC1
[4]
  Ki: 0.0015 µM
Liver [1]
  CL free: 88 L/h/kg
PC-3; Homo sapiens, PC-3, 120 h
  IC50: 0.0023 µM
Liver [2]
  CL free: 44 L/h/kg

## CC(C)CCNC(=O)c1ccc(NC(=O)N2Cc3cccc(Cl)c3C2)cc1
PC-3; pc-3
  IC50: 0.64 µM

## CC1(C(=O)N2CCC(c3ccc(NC(=O)N4Cc5ccccc5C4)cc3)CC2)CC1
[4]
  Ki: 0.0043 µM
Liver [1]
  CL free: 17 L/h/kg
PC-3; Homo sapiens, PC-3, 120 h
  IC50: 0.0066 µM
Liver [2]
  CL free: 3.4 L/h/kg

## O=C(Nc1ccc(C2CCN(C(=O)c3ccccc3)CC2)cc1)N1Cc2ccccc2C1
Liver [1]
  CL free: 59 L/h/kg
PC-3; Homo sapiens, PC-3, 120 h
  IC50: 0.0028 µM
Liver [2]
  CL free: 11 L/h/kg

## CC(C)CCNC(=O)c1ccc(NC(=O)N2Cc3ccc(C#N)cc3C2)cc1
PC-3; Homo sapiens, PC-3, 120 h
  IC50: > 10 µM

## O=C(NCCCCC1CCN(C(=O)c2ccccc2)CC1)N1Cc2ccccc2C1
Liver [1]
  CL free: 280 L/h/kg
PC-3; Homo sapiens, PC-3, 120 h
  IC50: 0.0084 µM
Liver [2]
  CL free: 19 L/h/kg

## CN1CCC(C(=O)N2CCC(c3ccc(NC(=O)N4Cc5ccc(F)cc5C4)cc3)CC2)CC1
[4]
  Ki: 0.0094 µM
Liver [1]
  CL free: 16 L/h/kg
PC-3; Homo sapiens, PC-3, 120 h
  IC50: 0.0056 µM
Liver [2]
  CL free: 2.5 L/h/kg

## Cc1ccc2c(c1)CN(C(=O)Nc1ccc(C(=O)NCCC(C)C)cc1)C2
PC-3; Homo sapiens, PC-3, 120 h
  IC50: 0.01 µM

## O=C(NCC1CCOC1)c1ccc(NC(=O)N2Cc3ccccc3C2)cc1 (centres undefined)
Liver [1]
  CL free: 5 L/h/kg
PC-3; pc-3
  IC50: 0.068 µM
Liver [2]
  CL free: 1.6 L/h/kg
[3]
  solubility: < 5 µM

## O=C(NCC1CCCOC1)c1ccc(NC(=O)N2Cc3ccccc3C2)cc1 (centres undefined)
Liver [1]
  CL free: 4.5 L/h/kg
PC-3; Homo sapiens, PC-3, 120 h
  IC50: 0.017 µM
Liver [2]
  CL free: 1.8 L/h/kg
[3]
  solubility: < 5 µM
